Where two headings read alike, the source gives them in different places.
Columns and labels:
Assay in all cases: Test D pre-/postemergence plant response
Assay type in all cases: in vivo
[1] = test system: giant foxtail (Setaria faberii); settings: Setaria faberi; for pest or weed control at 16 g/ha: 16 g ai/ha; for pest or weed control at 31 g/ha: 31 g ai/ha; for pest or weed control at 62 g/ha: 62 g ai/ha; for pest or weed control at 125 g/ha: 125 g ai/ha
How it was run: (§1)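 Pre-/post-emergence greenhouse test. Pre: seeded loam+sand, sprayed same day. Post: 1–4 leaf plants (2–18 cm), peat/vermiculite mix. Formulation: non-phytotoxic solvent + surfactant. Scored visually d13–15, 0–100 vs control.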

[2] = test system: oilseed rape (Brassica napus); settings: Brassica napus; for plant injury at 16 g/ha: 16 g ai/ha; for plant injury at 31 g/ha: 31 g ai/ha; for plant injury at 62 g/ha: 62 g ai/ha; for plant injury at 125 g/ha: 125 g ai/ha
How it was run: as §1

[3] = test system: corn (Zea mays); settings: Zea mays; for Corn plant response rating (crop injury, 0 = no effect, 100 = complete kill) at 62 g/ha: 62 g ai/ha
How it was run: as §1

[4] = test system: barnyardgrass (Echinochloa crus-galli); settings: Echinochloa crus-galli; for pest or weed control at 16 g/ha: 16 g ai/ha; for pest or weed control at 16 g/ha / pest or weed control at 31 g/ha: scale 0 to 100 (0 no effect, 100 complete control); for pest or weed control at 31 g/ha: 31 g ai/ha; for pest or weed control at 62 g/ha: 62 g ai/ha; for pest or weed control at 125 g/ha: 125 g ai/ha
How it was run: as §1

[5] = test system: yellow nutsedge (Cyperus esculentus); settings: Cyperus, pre-emergence, Preemergence
How it was run: as §1

[6] = test system: morningglory (Ipomoea coccinea); settings: Ipomoea; for pest or weed control at 16 g/ha: 16 g ai/ha; for pest or weed control at 31 g/ha: 31 g ai/ha; for pest or weed control at 62 g/ha: 62 g ai/ha; for pest or weed control at 125 g/ha: 125 g ai/ha
How it was run: as §1

[7] = test system: waterhemp (common waterhemp, Amaranthus rudis); settings: Amaranthus tuberculatus, post-emergence, Postemergence, scale 0 to 100 (0 no effect, 100 complete control), read-out: Waterhemp plant response rating
How it was run: as §1

[8] = post-emergence, Postemergence, scale 0 to 100 (0 no effect, 100 complete control), read-out: Foxtail, Giant plant response rating
[9] = post-emergence, Postemergence, scale 0 to 100, 0 no effect, 100 complete control, read-out: Plant response rating, Foxtail, Giant
[10] = pre-emergence, Preemergence, scale 0 to 100 (0 no effect, 100 complete control), read-out: Plant response rating, Foxtail, Giant
[11] = post-emergence, Postemergence, scale 0 to 100 (0 no effect, 100 complete control), read-out: Oilseed Rape plant response rating
[12] = post-emergence, Postemergence, scale 0 to 100, 0 no effect, 100 complete control, read-out: Plant response rating, Oilseed Rape
[13] = pre-emergence, Preemergence, scale 0 to 100 (0 no effect, 100 complete control), read-out: Plant response rating, Oilseed Rape
[14] = post-emergence, Postemergence, read-out: Barnyardgrass plant response rating
[15] = post-emergence, Postemergence, scale 0 to 100, 0 no effect, 100 complete control, read-out: Plant response rating, Barnyardgrass
[16] = pre-emergence, Preemergence, read-out: Plant response rating (scale 0 to 100), Barnyardgrass
[17] = pre-emergence, Preemergence, read-out: Plant response rating, Barnyardgrass
[18] = post-emergence, Postemergence, scale 0 to 100 (0 no effect, 100 complete control), read-out: Morningglory plant response rating
[19] = post-emergence, Postemergence, scale 0 to 100, 0 no effect, 100 complete control, read-out: Plant response rating, Morningglory
[20] = pre-emergence, Preemergence, scale 0 to 100 (0 no effect, 100 complete control), read-out: Plant response rating, Morningglory

Q: How did the pest or weed control at 16 g/ha [1, 8] turn out when FC(F)c1cc(-c2ccccc2Oc2ncc(Cl)cn2)on1 [Compound 53, 5-chloro-2-[2-[3-(difluoromethyl)-5-isoxazolyl]phenoxy]pyrimidine] was run?
A: 40%

Q: What about the pest or weed control at 31 g/ha [1, 8] of the same molecule?
A: 20%

Q: What about the pest or weed control at 62 g/ha [1, 9] of the same molecule?
A: 25%

Q: What about the pest or weed control at 125 g/ha [1, 9] of the same molecule?
A: 30%

Q: And the pest or weed control at 125 g/ha ([1]; pre-emergence, Preemergence, read-out: Plant response rating (scale 0 to 100), Foxtail, Giant)?
A: 100%

Q: And the pest or weed control at 16 g/ha [1, 10]?
A: 10%

Q: What about the pest or weed control at 31 g/ha [1, 10] of the same molecule?
A: 85%

Q: And the pest or weed control at 62 g/ha [1, 10]?
A: 98%

Q: What about the plant injury at 16 g/ha [2, 11] of the same molecule?
A: 70%

Q: And the plant injury at 31 g/ha [2, 11]?
A: 80%

Q: What about the plant injury at 62 g/ha [2, 12] of the same molecule?
A: 95%

Q: And the plant injury at 125 g/ha [2, 12]?
A: 85%

Q: What about the plant injury at 125 g/ha ([2]; pre-emergence, Preemergence, read-out: Plant response rating (scale 0 to 100), Oilseed Rape) of the same molecule?
A: 100%

Q: And the plant injury at 16 g/ha [2, 13]?
A: 80%

Q: And the plant injury at 31 g/ha [2, 13]?
A: 100%

Q: What about the plant injury at 62 g/ha [2, 13] of the same molecule?
A: 100%

Q: What about the plant injury at 16 g/ha ([3]; post-emergence, Postemergence, 16 g ai/ha, scale 0 to 100 (0 no effect, 100 complete control), read-out: Corn plant response rating) of the same molecule?
A: 0%

Q: What about the plant injury at 31 g/ha ([3]; post-emergence, Postemergence, 31 g ai/ha, scale 0 to 100 (0 no effect, 100 complete control), read-out: Corn plant response rating) of the same molecule?
A: 0%

Q: And the Corn plant response rating (crop injury, 0 = no effect, 100 = complete kill) at 62 g/ha ([3]; post-emergence, Postemergence, scale 0 to 100, 0 no effect, 100 complete control)?
A: 0%

Q: And the Corn plant response rating (crop injury, 0 = no effect, 100 = complete kill) at 125 g/ha ([3]; post-emergence, Postemergence, 125 g ai/ha, scale 0 to 100, 0 no effect, 100 complete control)?
A: 0%

Q: What about the plant injury at 125 g/ha ([3]; pre-emergence, Preemergence, 125 g ai/ha, read-out: Plant response rating (scale 0 to 100), Corn) of the same molecule?
A: 5%

Q: What about the Corn plant response rating (crop injury, 0 = no effect, 100 = complete kill) at 16 g/ha ([3]; pre-emergence, Preemergence, 16 g ai/ha, scale 0 to 100 (0 no effect, 100 complete control)) of the same molecule?
A: 5%

Q: And the Corn plant response rating (crop injury, 0 = no effect, 100 = complete kill) at 31 g/ha ([3]; pre-emergence, Preemergence, 31 g ai/ha, scale 0 to 100 (0 no effect, 100 complete control))?
A: 10%

Q: And the Corn plant response rating (crop injury, 0 = no effect, 100 = complete kill) at 62 g/ha ([3]; pre-emergence, Preemergence, scale 0 to 100 (0 no effect, 100 complete control))?
A: 100%

Q: And the pest or weed control at 16 g/ha [4, 14]?
A: 5%

Q: And the pest or weed control at 31 g/ha [4, 14]?
A: 10%

Q: What about the pest or weed control at 62 g/ha [4, 15] of the same molecule?
A: 25%

Q: And the pest or weed control at 125 g/ha [4, 15]?
A: 35%

Q: What about the pest or weed control at 62 g/ha [4, 16] of the same molecule?
A: 40%

Q: And the pest or weed control at 125 g/ha [4, 16]?
A: 95%

Q: And the pest or weed control at 16 g/ha [4, 17]?
A: 0%

Q: And the pest or weed control at 31 g/ha [4, 17]?
A: 5%

Q: What about the pest or weed control at 125 g/ha ([5]; 125 g ai/ha, read-out: Plant response rating (scale 0 to 100), Nutsedge, Yellow) of the same molecule?
A: 5%

Q: What about the pest or weed control at 16 g/ha ([5]; 16 g ai/ha, scale 0 to 100 (0 no effect, 100 complete control), read-out: Plant response rating, Nutsedge, Yellow) of the same molecule?
A: 20%

Q: And the pest or weed control at 31 g/ha ([5]; 31 g ai/ha, scale 0 to 100 (0 no effect, 100 complete control), read-out: Plant response rating, Nutsedge, Yellow)?
A: 0%

Q: And the pest or weed control at 62 g/ha ([5]; 62 g ai/ha, scale 0 to 100 (0 no effect, 100 complete control), read-out: Plant response rating, Nutsedge, Yellow)?
A: 0%

Q: And the pest or weed control at 16 g/ha [6, 18]?
A: 50%

Q: What about the pest or weed control at 31 g/ha [6, 18] of the same molecule?
A: 80%

Q: What about the pest or weed control at 62 g/ha [6, 19] of the same molecule?
A: 85%

Q: What about the pest or weed control at 125 g/ha [6, 19] of the same molecule?
A: 55%

Q: And the pest or weed control at 125 g/ha ([6]; pre-emergence, Preemergence, read-out: Plant response rating (scale 0 to 100), Morningglory)?
A: 40%

Q: And the pest or weed control at 16 g/ha [6, 20]?
A: 0%

Q: What about the pest or weed control at 31 g/ha [6, 20] of the same molecule?
A: 0%

Q: And the pest or weed control at 62 g/ha [6, 20]?
A: 45%

Q: And the pest or weed control at 16 g/ha ([7]; 16 g ai/ha)?
A: 80%

Q: What about the pest or weed control at 31 g/ha ([7]; 31 g ai/ha) of the same molecule?
A: 90%

From patent US10131652B2, “Pyrimidinyloxy benzene derivatives as herbicides” (E. I. DU PONT DE NEMOURS AND COMPANY, priority 2014, dated 2018)
